Here are results for five molecules from US5332427A, “Wood preservatives” (priority 1991, dated 1994).

For data set [1], the system named is Tyromyces palustris. The data set can be described thus: Wood weight reduction after weather resistance operation, test method of Japan Wood Preservation Association, Tyromyces palustris/Japanese cedar (Test Example 3). As to conditions: oil formulation, Japanese cedar, 30 weather resistance cycles, 8 weeks. The method, then:
(§1) An oil formulation of each of the test compounds shown in Table 5 was prepared according to Formulation Example 1 and was tested based on the test method of Japan Wood Preservation Association. The summary of the test method is as follows:
(§2) The cut end surfaces of a wooden piece of Japanese beech or Japanese cedar (thickness: 5 mm, width: 20 mm, length: 40 mm; the surface of 40×20 mm is of straight grain) were sealed with an epoxy resin and the wooden piece was impregnated with the oil formulation (110±10 g/m^2 surface area), and thereafter air-dried for 20 days to prepare a test specimen. The test specimen was dipped in still water [water:wooden piece=10:1 (volume ratio)] at 25°±3° C. for 5 hours, and then the water was volatilized at 40±2° C. for 19 hours. This weather resistance operation was repeated 30 times. The test specimen after the weather resistance operation was dried at 60°±2° C. for 48 hours and then placed in a desicator for about 30 minutes, after which the weight (W3) of the test specimen was measured. The test described above was repeated for 9 wooden pieces. The test specimen was sterilized and then, placed in a culture vial in which wood rotting fungi (Coriolus versicolor/Japanese beech, Tyromyces palustris/Japanese cedar) were being cultured, in which cultivation was effected at 26°±2° C. at a humidity of 80% for 8 weeks. After 8 weeks, the test specimen was taken out of the culture vial and the mycelium and other extraneous matters were removed therefrom, after which the test specimen was dried at 60°±2° C. for 48 hours and placed in a desicator for about 30 minutes. Thereafter, the weight (W4) of the test specimen was measured. The weight reduction percentage was calculated according to the following equation: [formula]

The test system of data set [2] is Coriolus versicolor. Put plainly: Wood weight reduction after weather resistance operation, test method of Japan Wood Preservation Association, Coriolus versicolor/Japanese beech (Test Example 3). Conditions: oil formulation, Japanese beech, 30 weather resistance cycles, 8 weeks. The method, then: as §1, §2
Data set [3] can be described thus: Discoloration (coloration) of oil formulation-coated filter paper under irradiation with light (Test Example 1). Type of data set: physicochemical. More on the design: key: -: No discoloration (coloration); +: Slight discoloration (coloration); ++: Prominent discoloration (coloration). As to conditions: 1% oil formulation, 100 ml per m^2 of filter paper, light of 6000-7000 lux for 5 minutes. The method, then:
A 1% oil formulation of each of the test compounds shown in Table 2 was prepared according to Formulation Example 1. The oil formulation was coated on a filter paper having a diameter of 5.5 cm in an amount of 100 ml of the oil formulation per m^2 of the filter paper and the filter paper was air-dried. The filter paper thus prepared was subjected to irradiation with light of 6000-7000 lux for 5 minutes and then, taken out, after which the degree of discoloration (coloration) was observed. The degree of discoloration (coloration) was determined based on the following standard.
No discoloration (coloration): -
Slight discoloration (coloration): +
Prominent discoloration (coloration): ++

Data set [4] deals with Coriolus versicolor. The data set can be described thus: Mycelium growth inhibition on potato dextrose agar medium, Coriolus versicolor (Test Example 2). Type of data set: cell-based. As to conditions: four days after inoculation. The method, then:
(§3) Each of the test compounds shown in Tables 3 and 4 was dissolved in a definite amount of dimethylsulfoxide to prepare a 1% W/V solution. A definite amount of the resulting formulation was added to a potato dextrose agar medium just after sterilization (using a moist heat sterilizer) and about 20 cc of the mixture was poured into a Petri dish of 9 cm in diameter and the Petri dish was placed at room temperature. After the medium was solidified, mycelium from a colony of Coriolus versicolor or Tyromyces palustris cultured previously was punched with a cork borer of 5 mm in diameter and the mycelium was inoculated at the center of the test medium. Four days after the inoculation, the diameter of colony extended from the inoculation point was measured and the percentage of mycelium growth inhibition was calculated according to the following equation: [formula]

Data set [5] concerns Tyromyces palustris. The data set can be described thus: Mycelium growth inhibition on potato dextrose agar medium, Tyromyces palustris (Test Example 2). Conditions: four days after inoculation. The class given is cell-based. The method, then: as §3

Consider “3-Iodo-2-propenylbutyl carbamate [Compound (B)]”, for which the “Average weight reduction percentage” value stood at 0.78% in the data set with Tyromyces palustris [1] (concentration 1.0%) and 7.6% in the data set with Coriolus versicolor [2] (concentration 1.0%). The “Degree of discoloration (coloration)” value in data set [3] was “+”. Also, the figures for the “Percentage of growth inhibition for Coriolus versicolor” value with Coriolus versicolor [4] (1 ppm), in the data set on Coriolus versicolor [4] (2 ppm) and in the data set with Coriolus versicolor [4] (4 ppm) were 81.3 Percentage, 91.9 Percentage and 100 Percentage, respectively. Moreover, the “Percentage of growth inhibition for Tyromyces palustris” value in the data set with Tyromyces palustris [5] (1 ppm) stood at 80.5 Percentage; in the data set with Tyromyces palustris [5] (2 ppm), 88.7 Percentage; with Tyromyces palustris [5] (4 ppm) it was 100 Percentage.
As to `CC(C)(C)C(O)/C(=C\c1ccc(Cl)cc1)n1cncn1` (single isomer, unassigned; (-)) [Compound (2), (-)-(E)-1-(4-chlorophenyl)-4,4-dimethyl-2-(1,2,4-triazol-1-yl)-1-penten-3-ol], the “Degree of discoloration (coloration)” value in data set [3] is recorded as “-”. Further, the “Percentage of growth inhibition for Coriolus versicolor” value in the data set on Coriolus versicolor [4] (1 ppm) came to 85.3 Percentage; with Coriolus versicolor [4] (2 ppm) it was 87.2 Percentage; in the data set on Coriolus versicolor [4] (4 ppm), 93.9 Percentage. Further, the results for the “Percentage of growth inhibition for Tyromyces palustris” value in the data set with Tyromyces palustris [5] (1 ppm), with Tyromyces palustris [5] (2 ppm) and with Tyromyces palustris [5] (4 ppm) were 94.6 Percentage, 98.8 Percentage and 100 Percentage, respectively.
As for `CCOC(=O)OCC(I)=C(Br)I` [Compound (A), 3-Bromo-2,3-diiodo-2-propenylethyl carbonate], the results for the “Average weight reduction percentage” value in the data set with Tyromyces palustris [1] (concentration 1.0%) and with Coriolus versicolor [2] (concentration 1.0%) were 3.1% and 3.9%, respectively. For the same molecule, the “Percentage of growth inhibition for Coriolus versicolor” value was determined as 20.0 Percentage in the data set on Coriolus versicolor [4] (1 ppm), 41.7 Percentage with Coriolus versicolor [4] (2 ppm) and 72.8 Percentage with Coriolus versicolor [4] (4 ppm). For the same molecule, the results for the “Percentage of growth inhibition for Tyromyces palustris” value with Tyromyces palustris [5] (1 ppm), in the data set with Tyromyces palustris [5] (2 ppm) and in the data set on Tyromyces palustris [5] (4 ppm) were 26.6 Percentage, 43.0 Percentage and 63.3 Percentage, respectively.
With `CC(C)(C)C(O)/C(=C\c1ccc(Cl)cc1Cl)n1cncn1` (single isomer, unassigned; (-)) [Compound (1), (-)-(E)-1-(2,4-dichlorophenyl)-4,4-dimethyl-2-(1,2,4-triazol-1-yl)-1-penten-3-ol], the “Average weight reduction percentage” value in the data set on Tyromyces palustris [1] (concentration 0.5%) worked out at 0.25%; with Tyromyces palustris [1] (concentration 1.0%), 0.19%; with Coriolus versicolor [2] (concentration 0.5%), 0.70%; in the data set with Coriolus versicolor [2] (concentration 1.0%), 0.64%. Besides, the “Degree of discoloration (coloration)” value in data set [3] is recorded as “-”. Moreover, the “Percentage of growth inhibition for Coriolus versicolor” value was found to be 86.1 Percentage in the data set with Coriolus versicolor [4] (1 ppm), 93.9 Percentage with Coriolus versicolor [4] (2 ppm) and 98.3 Percentage with Coriolus versicolor [4] (4 ppm). Also, the entries for the “Percentage of growth inhibition for Tyromyces palustris” value in the data set with Tyromyces palustris [5] (1 ppm), in the data set with Tyromyces palustris [5] (2 ppm) and in the data set with Tyromyces palustris [5] (4 ppm) were 79.1 Percentage, 93.0 Percentage and 95.6 Percentage, respectively.
Regarding `Clc1ccc(OCOCC#CI)cc1` [Compound (C), 4-Chlorophenyl-3-iodopropargyl formal], the “Average weight reduction percentage” value in the data set with Tyromyces palustris [1] (concentration 1.0%) is given as 0.34%; in the data set with Coriolus versicolor [2] (concentration 1.0%) it was 1.1%. Besides, the “Degree of discoloration (coloration)” value in data set [3] is given as “++”. Further, the “Percentage of growth inhibition for Coriolus versicolor” value in the data set with Coriolus versicolor [4] (1 ppm) is 68.2 Percentage; with Coriolus versicolor [4] (2 ppm), 88.7 Percentage; in the data set on Coriolus versicolor [4] (4 ppm) it was 97.9 Percentage. Also, the “Percentage of growth inhibition for Tyromyces palustris” value in the data set on Tyromyces palustris [5] (1 ppm) is recorded as 77.0 Percentage; in the data set with Tyromyces palustris [5] (2 ppm) it was 98.6 Percentage; with Tyromyces palustris [5] (4 ppm), 100 Percentage.
